Experimental data as given in BindingDB's records for PubMed 10347254 (R. W. Johnson Pharmaceutical Research Institute, 1999).
pKi: −log10 of the molar value.

What follows are compounds tested against Histamine H3 receptor (Homo sapiens, UniProt Q9Y5N1).
Sequence of Histamine H3 receptor (Q9Y5N1 whole entry): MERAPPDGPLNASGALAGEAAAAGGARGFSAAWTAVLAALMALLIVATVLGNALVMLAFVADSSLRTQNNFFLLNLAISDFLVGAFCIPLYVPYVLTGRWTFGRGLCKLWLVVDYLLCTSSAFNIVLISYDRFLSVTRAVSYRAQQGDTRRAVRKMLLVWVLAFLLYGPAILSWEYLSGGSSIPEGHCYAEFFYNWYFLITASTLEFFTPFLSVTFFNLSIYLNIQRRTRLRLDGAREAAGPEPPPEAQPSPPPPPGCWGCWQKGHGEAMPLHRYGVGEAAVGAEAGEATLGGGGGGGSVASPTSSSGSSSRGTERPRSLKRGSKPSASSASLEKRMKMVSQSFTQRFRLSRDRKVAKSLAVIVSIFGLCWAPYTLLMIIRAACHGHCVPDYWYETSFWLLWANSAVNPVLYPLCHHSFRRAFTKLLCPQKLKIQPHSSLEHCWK

pKi | SMILES
< 5.00 | N=C(N)SCCc1cnc[nH]1 [2-(3H-imidazol-4-yl)ethylsulfanylmethanimidamide]
< 5.00 | c1nc(CC2CCNCC2)c[nH]1 [4-(1H-imidazol-4-ylmethyl)piperidine]

More lines, now with the values behind:

SMILES | pKi
COc1ccc(CN(CCN(C)C)c2ccccn2)cc1 | < 5.00
CN/C([CH-][N+](=O)[O-])=[NH+]\CCSCc1ccc(CN(C)C)o1 | < 5.00
c1c[nH]cn1 | < 5.00
CNCCc1c[nH]cn1 [N(alpha)-Methylhistamine] | < 5.00
